Test results from ChEMBL document CHEMBL5442175, “EUbOPEN Chemogenomics Library - PDSP Secondary Binding” (2024).
pKi: −log10 of the molar value. Where a name gives a salt, the structure may show the parent alone.

What was measured:
[1] = biological target: D(3) dopamine receptor (Homo sapiens, UniProt P35462); test: PDSP Secondary Binding target: DRD3 - Compounds are tested at 10 uM concentration, plate are incubated at room temperature in the dark for 90 minutes. Reaction are stopped by vacuum filtration onto 0.3% polyethyleneimine soaked filter mats using Filtermate harvester. Scintillation cocktail is then melted onto microwave-dried filters on a hot plate and the radio activity is counted in Microbia counter.
[2] = biological target: Translocator protein (Homo sapiens, UniProt P30536); test: PDSP Secondary Binding target: TSPO - Compounds are tested at 10 uM concentration, plate are incubated at room temperature in the dark for 90 minutes. Reaction are stopped by vacuum filtration onto 0.3% polyethyleneimine soaked filter mats using Filtermate harvester. Scintillation cocktail is then melted onto microwave-dried filters on a hot plate and the radio activity is counted in Microbia counter.
[3] = biological target: Sodium-dependent serotonin transporter (Homo sapiens, UniProt P31645); test: PDSP Secondary Binding target: SLC6A4 - Compounds are tested at 10 uM concentration, plate are incubated at room temperature in the dark for 90 minutes. Reaction are stopped by vacuum filtration onto 0.3% polyethyleneimine soaked filter mats using Filtermate harvester. Scintillation cocktail is then melted onto microwave-dried filters on a hot plate and the radio activity is counted in Microbia counter.
[4] = biological target: Sodium-dependent noradrenaline transporter (Homo sapiens, UniProt P23975); test: PDSP Secondary Binding target: SLC6A2 - Compounds are tested at 10 uM concentration, plate are incubated at room temperature in the dark for 90 minutes. Reaction are stopped by vacuum filtration onto 0.3% polyethyleneimine soaked filter mats using Filtermate harvester. Scintillation cocktail is then melted onto microwave-dried filters on a hot plate and the radio activity is counted in Microbia counter.
[5] = biological target: D(2) dopamine receptor (Homo sapiens, UniProt P14416); test: PDSP Secondary Binding target: DRD2 - Compounds are tested at 10 uM concentration, plate are incubated at room temperature in the dark for 90 minutes. Reaction are stopped by vacuum filtration onto 0.3% polyethyleneimine soaked filter mats using Filtermate harvester. Scintillation cocktail is then melted onto microwave-dried filters on a hot plate and the radio activity is counted in Microbia counter.
[6] = biological target: T1, D(4) dopamine receptor (Homo sapiens, UniProt P21917); test: PDSP Secondary Binding target: DRD4 - Compounds are tested at 10 uM concentration, plate are incubated at room temperature in the dark for 90 minutes. Reaction are stopped by vacuum filtration onto 0.3% polyethyleneimine soaked filter mats using Filtermate harvester. Scintillation cocktail is then melted onto microwave-dried filters on a hot plate and the radio activity is counted in Microbia counter.
T1 sequence (P21917 whole entry): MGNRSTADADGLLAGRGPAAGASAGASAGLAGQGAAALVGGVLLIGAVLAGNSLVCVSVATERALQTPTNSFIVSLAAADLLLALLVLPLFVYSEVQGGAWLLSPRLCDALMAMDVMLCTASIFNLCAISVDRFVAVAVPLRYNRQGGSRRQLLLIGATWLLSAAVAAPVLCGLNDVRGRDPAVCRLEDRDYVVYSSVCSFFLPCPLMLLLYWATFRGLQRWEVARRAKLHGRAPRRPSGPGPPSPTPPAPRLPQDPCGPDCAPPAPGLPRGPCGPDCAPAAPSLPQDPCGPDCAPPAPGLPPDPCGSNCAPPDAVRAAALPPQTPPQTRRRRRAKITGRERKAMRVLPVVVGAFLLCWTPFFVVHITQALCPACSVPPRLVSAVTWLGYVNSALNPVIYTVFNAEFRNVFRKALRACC

[7] = biological target: 5-hydroxytryptamine receptor 5A (Homo sapiens, UniProt P47898); test: PDSP Secondary Binding target: HTR5A - Compounds are tested at 10 uM concentration, plate are incubated at room temperature in the dark for 90 minutes. Reaction are stopped by vacuum filtration onto 0.3% polyethyleneimine soaked filter mats using Filtermate harvester. Scintillation cocktail is then melted onto microwave-dried filters on a hot plate and the radio activity is counted in Microbia counter.
[8] = biological target: T2, Alpha-2B adrenergic receptor (Homo sapiens, UniProt P18089); test: PDSP Secondary Binding target: ADRA2B - Compounds are tested at 10 uM concentration, plate are incubated at room temperature in the dark for 90 minutes. Reaction are stopped by vacuum filtration onto 0.3% polyethyleneimine soaked filter mats using Filtermate harvester. Scintillation cocktail is then melted onto microwave-dried filters on a hot plate and the radio activity is counted in Microbia counter.
T2 sequence (P18089 whole entry): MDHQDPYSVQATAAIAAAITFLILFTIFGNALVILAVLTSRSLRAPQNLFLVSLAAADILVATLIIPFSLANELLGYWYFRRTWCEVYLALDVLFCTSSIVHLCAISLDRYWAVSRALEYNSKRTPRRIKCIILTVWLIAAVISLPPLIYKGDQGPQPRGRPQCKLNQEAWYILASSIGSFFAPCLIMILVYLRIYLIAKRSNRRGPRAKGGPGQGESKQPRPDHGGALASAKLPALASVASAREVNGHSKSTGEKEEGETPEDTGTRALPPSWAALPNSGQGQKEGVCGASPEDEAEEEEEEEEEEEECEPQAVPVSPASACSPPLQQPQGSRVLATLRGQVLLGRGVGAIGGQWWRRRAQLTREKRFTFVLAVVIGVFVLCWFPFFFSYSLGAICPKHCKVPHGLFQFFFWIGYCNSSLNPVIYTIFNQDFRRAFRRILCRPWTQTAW

[9] = biological target: T3, Alpha-2C adrenergic receptor (Homo sapiens, UniProt P18825); test: PDSP Secondary Binding target: ADRA2C - Compounds are tested at 10 uM concentration, plate are incubated at room temperature in the dark for 90 minutes. Reaction are stopped by vacuum filtration onto 0.3% polyethyleneimine soaked filter mats using Filtermate harvester. Scintillation cocktail is then melted onto microwave-dried filters on a hot plate and the radio activity is counted in Microbia counter.
T3 sequence (P18825 whole entry): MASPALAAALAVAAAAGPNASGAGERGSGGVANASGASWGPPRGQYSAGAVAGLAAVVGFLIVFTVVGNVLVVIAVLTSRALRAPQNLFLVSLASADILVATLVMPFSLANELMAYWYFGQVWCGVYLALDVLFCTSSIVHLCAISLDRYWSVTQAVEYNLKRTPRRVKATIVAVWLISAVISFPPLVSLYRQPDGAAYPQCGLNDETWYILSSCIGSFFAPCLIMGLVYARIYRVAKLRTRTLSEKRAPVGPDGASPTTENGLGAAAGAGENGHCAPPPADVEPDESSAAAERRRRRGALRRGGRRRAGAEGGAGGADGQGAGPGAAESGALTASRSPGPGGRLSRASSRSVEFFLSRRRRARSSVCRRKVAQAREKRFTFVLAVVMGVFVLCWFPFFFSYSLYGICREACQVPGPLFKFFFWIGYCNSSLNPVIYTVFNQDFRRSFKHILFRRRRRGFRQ

[10] = biological target: Mu-type opioid receptor (Homo sapiens, UniProt P35372); test: PDSP Secondary Binding target: OPRM1 - Compounds are tested at 10 uM concentration, plate are incubated at room temperature in the dark for 90 minutes. Reaction are stopped by vacuum filtration onto 0.3% polyethyleneimine soaked filter mats using Filtermate harvester. Scintillation cocktail is then melted onto microwave-dried filters on a hot plate and the radio activity is counted in Microbia counter.
[11] = biological target: Histamine H1 receptor (Homo sapiens, UniProt P35367); test: PDSP Secondary Binding target: HRH1 - Compounds are tested at 10 uM concentration, plate are incubated at room temperature in the dark for 90 minutes. Reaction are stopped by vacuum filtration onto 0.3% polyethyleneimine soaked filter mats using Filtermate harvester. Scintillation cocktail is then melted onto microwave-dried filters on a hot plate and the radio activity is counted in Microbia counter.
[12] = biological target: Sigma intracellular receptor 2 (Homo sapiens, UniProt Q5BJF2); test: PDSP Secondary Binding target: TMEM97 - Compounds are tested at 10 uM concentration, plate are incubated at room temperature in the dark for 90 minutes. Reaction are stopped by vacuum filtration onto 0.3% polyethyleneimine soaked filter mats using Filtermate harvester. Scintillation cocktail is then melted onto microwave-dried filters on a hot plate and the radio activity is counted in Microbia counter.
[13] = biological target: Sodium-dependent dopamine transporter (Homo sapiens, UniProt Q01959); test: PDSP Secondary Binding target: SLC6A3 - Compounds are tested at 10 uM concentration, plate are incubated at room temperature in the dark for 90 minutes. Reaction are stopped by vacuum filtration onto 0.3% polyethyleneimine soaked filter mats using Filtermate harvester. Scintillation cocktail is then melted onto microwave-dried filters on a hot plate and the radio activity is counted in Microbia counter.
[14] = biological target: Sigma non-opioid intracellular receptor 1 (Homo sapiens, UniProt Q99720); test: PDSP Secondary Binding target: SIGMAR1 - Compounds are tested at 10 uM concentration, plate are incubated at room temperature in the dark for 90 minutes. Reaction are stopped by vacuum filtration onto 0.3% polyethyleneimine soaked filter mats using Filtermate harvester. Scintillation cocktail is then melted onto microwave-dried filters on a hot plate and the radio activity is counted in Microbia counter.
[15] = biological target: 5-hydroxytryptamine receptor 7 (Homo sapiens, UniProt P34969); test: PDSP Secondary Binding target: HTR7 - Compounds are tested at 10 uM concentration, plate are incubated at room temperature in the dark for 90 minutes. Reaction are stopped by vacuum filtration onto 0.3% polyethyleneimine soaked filter mats using Filtermate harvester. Scintillation cocktail is then melted onto microwave-dried filters on a hot plate and the radio activity is counted in Microbia counter.
[16] = biological target: 5-hydroxytryptamine receptor 1B (Homo sapiens, UniProt P28222); test: PDSP Secondary Binding target: HTR1B - Compounds are tested at 10 uM concentration, plate are incubated at room temperature in the dark for 90 minutes. Reaction are stopped by vacuum filtration onto 0.3% polyethyleneimine soaked filter mats using Filtermate harvester. Scintillation cocktail is then melted onto microwave-dried filters on a hot plate and the radio activity is counted in Microbia counter.
[17] = biological target: T4, Alpha-2A adrenergic receptor (Homo sapiens, UniProt P08913); test: PDSP Secondary Binding target: ADRA2A - Compounds are tested at 10 uM concentration, plate are incubated at room temperature in the dark for 90 minutes. Reaction are stopped by vacuum filtration onto 0.3% polyethyleneimine soaked filter mats using Filtermate harvester. Scintillation cocktail is then melted onto microwave-dried filters on a hot plate and the radio activity is counted in Microbia counter.
T4 sequence (P08913 whole entry): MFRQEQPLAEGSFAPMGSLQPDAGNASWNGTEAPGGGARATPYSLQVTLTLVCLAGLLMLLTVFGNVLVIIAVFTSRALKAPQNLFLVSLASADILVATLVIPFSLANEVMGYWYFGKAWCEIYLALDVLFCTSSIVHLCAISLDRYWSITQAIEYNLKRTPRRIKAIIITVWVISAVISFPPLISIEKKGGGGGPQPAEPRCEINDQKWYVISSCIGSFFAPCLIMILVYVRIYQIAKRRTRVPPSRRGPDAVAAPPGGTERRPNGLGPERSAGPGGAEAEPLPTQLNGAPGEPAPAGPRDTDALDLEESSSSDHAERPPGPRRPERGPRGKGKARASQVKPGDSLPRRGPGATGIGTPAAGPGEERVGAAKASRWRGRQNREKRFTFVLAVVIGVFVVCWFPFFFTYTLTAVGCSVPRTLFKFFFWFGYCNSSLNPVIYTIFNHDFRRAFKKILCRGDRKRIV

[18] = biological target: T5, Muscarinic acetylcholine receptor M5 (Homo sapiens, UniProt P08912); test: PDSP Secondary Binding target: CHRM5 - Compounds are tested at 10 uM concentration, plate are incubated at room temperature in the dark for 90 minutes. Reaction are stopped by vacuum filtration onto 0.3% polyethyleneimine soaked filter mats using Filtermate harvester. Scintillation cocktail is then melted onto microwave-dried filters on a hot plate and the radio activity is counted in Microbia counter.
T5 sequence (P08912 whole entry): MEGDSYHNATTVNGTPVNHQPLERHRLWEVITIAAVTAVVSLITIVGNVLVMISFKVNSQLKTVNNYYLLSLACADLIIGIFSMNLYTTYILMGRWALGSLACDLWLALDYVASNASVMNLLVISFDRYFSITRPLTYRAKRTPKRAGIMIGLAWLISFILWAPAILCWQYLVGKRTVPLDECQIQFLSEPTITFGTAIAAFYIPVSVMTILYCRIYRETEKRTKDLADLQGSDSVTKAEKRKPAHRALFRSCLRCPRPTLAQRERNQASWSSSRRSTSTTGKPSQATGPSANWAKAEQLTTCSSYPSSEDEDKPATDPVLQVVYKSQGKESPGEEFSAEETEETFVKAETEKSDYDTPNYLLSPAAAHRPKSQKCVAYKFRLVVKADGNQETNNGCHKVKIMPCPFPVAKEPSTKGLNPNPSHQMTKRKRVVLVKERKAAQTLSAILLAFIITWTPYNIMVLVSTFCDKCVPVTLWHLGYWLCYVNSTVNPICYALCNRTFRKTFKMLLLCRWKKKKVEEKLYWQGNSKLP

Sequence of Sodium-dependent noradrenaline transporter (P23975 whole entry): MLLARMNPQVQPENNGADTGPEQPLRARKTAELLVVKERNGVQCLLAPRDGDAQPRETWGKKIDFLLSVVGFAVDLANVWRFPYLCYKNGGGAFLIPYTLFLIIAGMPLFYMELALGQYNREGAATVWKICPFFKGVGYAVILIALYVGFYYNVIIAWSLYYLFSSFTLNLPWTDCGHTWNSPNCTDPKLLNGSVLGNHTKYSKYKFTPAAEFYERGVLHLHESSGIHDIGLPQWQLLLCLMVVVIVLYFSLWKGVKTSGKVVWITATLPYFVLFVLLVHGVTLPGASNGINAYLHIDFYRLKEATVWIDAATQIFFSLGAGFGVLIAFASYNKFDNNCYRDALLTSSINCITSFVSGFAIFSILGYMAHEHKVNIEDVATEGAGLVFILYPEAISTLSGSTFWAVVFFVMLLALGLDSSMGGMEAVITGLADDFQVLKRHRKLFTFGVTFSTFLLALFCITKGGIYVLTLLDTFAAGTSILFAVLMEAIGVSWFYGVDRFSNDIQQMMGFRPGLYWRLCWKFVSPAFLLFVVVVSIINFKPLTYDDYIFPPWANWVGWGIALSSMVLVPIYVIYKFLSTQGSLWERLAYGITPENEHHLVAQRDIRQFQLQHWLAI
Sequence of D(3) dopamine receptor (P35462 whole entry): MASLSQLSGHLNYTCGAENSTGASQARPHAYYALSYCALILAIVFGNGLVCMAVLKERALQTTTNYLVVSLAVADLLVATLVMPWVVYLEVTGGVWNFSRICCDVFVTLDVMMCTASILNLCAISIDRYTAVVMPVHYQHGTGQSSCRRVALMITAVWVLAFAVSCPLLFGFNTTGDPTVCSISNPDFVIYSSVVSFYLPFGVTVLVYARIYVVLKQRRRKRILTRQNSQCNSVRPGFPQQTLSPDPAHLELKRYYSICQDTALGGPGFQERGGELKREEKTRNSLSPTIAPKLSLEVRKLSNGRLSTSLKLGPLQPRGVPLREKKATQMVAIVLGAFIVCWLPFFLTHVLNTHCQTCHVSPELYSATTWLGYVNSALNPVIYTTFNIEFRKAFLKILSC
Sequence of Translocator protein (P30536 whole entry): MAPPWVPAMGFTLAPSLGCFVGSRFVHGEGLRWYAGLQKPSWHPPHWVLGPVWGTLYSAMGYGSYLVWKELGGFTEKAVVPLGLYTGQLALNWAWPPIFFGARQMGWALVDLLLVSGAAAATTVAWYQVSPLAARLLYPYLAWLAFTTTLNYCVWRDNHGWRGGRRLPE
Sequence of Sodium-dependent serotonin transporter (P31645 whole entry): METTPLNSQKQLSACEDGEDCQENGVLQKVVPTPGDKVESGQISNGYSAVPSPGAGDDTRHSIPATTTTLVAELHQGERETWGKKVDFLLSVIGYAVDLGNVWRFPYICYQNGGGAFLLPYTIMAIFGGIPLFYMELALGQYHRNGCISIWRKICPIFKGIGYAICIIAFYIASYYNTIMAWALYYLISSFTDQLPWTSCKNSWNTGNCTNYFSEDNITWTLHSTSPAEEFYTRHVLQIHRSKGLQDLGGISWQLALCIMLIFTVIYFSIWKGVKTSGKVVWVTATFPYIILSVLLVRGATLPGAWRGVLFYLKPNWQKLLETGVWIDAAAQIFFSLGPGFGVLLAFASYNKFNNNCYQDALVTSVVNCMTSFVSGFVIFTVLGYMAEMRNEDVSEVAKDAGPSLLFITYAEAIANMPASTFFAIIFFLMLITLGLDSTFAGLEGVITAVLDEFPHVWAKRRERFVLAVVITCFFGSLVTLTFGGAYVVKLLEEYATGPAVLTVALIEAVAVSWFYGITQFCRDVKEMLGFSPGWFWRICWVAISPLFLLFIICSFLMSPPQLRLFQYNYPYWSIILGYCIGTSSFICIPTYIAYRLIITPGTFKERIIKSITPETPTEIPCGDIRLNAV
Sequence of 5-hydroxytryptamine receptor 5A (P47898 whole entry): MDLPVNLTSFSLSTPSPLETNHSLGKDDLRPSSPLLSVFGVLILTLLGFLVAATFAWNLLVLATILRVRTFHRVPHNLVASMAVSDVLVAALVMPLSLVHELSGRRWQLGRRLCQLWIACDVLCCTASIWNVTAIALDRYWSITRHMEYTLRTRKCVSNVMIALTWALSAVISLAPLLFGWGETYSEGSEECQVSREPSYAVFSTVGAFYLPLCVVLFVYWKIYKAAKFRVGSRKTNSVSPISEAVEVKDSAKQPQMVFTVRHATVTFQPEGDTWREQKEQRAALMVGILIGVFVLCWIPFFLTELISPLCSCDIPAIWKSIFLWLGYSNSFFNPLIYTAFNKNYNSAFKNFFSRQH
Sequence of Mu-type opioid receptor (P35372 whole entry): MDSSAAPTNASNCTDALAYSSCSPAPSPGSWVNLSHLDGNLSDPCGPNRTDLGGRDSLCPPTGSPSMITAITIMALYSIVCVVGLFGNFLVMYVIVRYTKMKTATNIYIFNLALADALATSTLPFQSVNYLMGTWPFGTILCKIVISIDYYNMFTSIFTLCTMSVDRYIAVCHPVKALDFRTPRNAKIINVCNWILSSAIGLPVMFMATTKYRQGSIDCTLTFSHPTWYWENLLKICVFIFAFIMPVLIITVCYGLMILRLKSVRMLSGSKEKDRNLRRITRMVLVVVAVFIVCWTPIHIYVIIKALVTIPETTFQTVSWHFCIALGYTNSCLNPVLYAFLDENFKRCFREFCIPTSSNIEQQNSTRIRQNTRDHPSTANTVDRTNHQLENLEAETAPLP
Sequence of Sigma intracellular receptor 2 (Q5BJF2 whole entry): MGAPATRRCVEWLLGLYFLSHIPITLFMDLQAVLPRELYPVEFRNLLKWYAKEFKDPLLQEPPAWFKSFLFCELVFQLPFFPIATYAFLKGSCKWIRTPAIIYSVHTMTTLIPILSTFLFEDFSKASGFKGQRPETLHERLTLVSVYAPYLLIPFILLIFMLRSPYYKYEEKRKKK
Sequence of D(2) dopamine receptor (P14416 whole entry): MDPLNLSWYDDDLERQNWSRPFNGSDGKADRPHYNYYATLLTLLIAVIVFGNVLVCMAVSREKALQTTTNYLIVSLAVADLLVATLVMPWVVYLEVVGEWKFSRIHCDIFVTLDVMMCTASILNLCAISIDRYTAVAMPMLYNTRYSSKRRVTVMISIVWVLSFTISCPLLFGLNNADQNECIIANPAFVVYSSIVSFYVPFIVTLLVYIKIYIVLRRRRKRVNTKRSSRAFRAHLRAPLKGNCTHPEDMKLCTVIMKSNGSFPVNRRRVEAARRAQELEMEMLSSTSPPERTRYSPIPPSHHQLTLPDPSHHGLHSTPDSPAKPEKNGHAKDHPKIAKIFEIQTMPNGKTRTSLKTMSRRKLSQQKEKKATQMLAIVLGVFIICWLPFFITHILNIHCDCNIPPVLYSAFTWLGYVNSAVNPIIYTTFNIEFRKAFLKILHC
Sequence of Sodium-dependent dopamine transporter (Q01959 whole entry): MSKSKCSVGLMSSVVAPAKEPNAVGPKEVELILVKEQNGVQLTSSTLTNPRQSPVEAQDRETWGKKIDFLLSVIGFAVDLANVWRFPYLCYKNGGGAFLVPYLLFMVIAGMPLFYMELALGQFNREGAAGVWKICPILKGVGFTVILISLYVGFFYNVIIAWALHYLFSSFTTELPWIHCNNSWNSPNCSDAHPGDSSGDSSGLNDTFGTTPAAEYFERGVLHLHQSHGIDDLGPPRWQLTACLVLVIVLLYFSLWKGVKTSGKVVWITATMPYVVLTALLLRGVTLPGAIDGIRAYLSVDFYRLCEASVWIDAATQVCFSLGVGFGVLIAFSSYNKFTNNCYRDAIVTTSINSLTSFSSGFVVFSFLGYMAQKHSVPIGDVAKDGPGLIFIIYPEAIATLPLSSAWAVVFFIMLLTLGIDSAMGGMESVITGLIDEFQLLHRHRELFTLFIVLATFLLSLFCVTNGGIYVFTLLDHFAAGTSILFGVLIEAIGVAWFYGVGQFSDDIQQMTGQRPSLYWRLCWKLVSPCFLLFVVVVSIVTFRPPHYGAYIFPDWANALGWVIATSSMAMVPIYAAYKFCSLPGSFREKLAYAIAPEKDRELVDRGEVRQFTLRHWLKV
Sequence of Histamine H1 receptor (P35367 whole entry): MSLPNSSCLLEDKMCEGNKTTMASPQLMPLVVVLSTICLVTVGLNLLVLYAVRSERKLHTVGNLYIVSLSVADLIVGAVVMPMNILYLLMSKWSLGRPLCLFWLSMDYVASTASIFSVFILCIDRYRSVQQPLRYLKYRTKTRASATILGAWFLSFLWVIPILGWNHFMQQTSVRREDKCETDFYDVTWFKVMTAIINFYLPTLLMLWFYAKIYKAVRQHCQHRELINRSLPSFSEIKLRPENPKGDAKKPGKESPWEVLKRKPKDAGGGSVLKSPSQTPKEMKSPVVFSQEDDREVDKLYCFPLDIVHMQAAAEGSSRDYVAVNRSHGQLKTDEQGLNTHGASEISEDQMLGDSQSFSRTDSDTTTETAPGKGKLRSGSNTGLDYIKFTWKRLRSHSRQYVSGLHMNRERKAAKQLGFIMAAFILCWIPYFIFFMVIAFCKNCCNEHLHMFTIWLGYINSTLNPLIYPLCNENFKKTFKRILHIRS
Sequence of Sigma non-opioid intracellular receptor 1 (Q99720 whole entry): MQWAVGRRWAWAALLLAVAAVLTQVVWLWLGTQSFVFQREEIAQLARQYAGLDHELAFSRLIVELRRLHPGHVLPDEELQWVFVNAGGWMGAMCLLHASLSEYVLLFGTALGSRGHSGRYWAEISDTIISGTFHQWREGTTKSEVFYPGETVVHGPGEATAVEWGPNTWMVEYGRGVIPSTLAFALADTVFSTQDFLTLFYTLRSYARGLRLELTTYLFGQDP
Sequence of 5-hydroxytryptamine receptor 1B (P28222 whole entry): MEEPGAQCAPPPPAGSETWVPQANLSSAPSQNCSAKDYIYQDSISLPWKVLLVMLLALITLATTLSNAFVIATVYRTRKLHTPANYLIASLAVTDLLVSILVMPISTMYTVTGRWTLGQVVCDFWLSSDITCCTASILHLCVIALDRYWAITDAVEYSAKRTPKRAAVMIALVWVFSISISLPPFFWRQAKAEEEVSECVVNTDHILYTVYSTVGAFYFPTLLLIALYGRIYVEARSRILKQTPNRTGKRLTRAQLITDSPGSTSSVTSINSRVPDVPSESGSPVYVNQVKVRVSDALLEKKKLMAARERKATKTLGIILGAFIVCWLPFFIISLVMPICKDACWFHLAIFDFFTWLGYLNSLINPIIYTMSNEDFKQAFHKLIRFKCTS

CCCNS(=O)(=O)Nc1ncnc(OCCOc2ncc(Br)cn2)c1-c1ccc(Br)cc1
pKi [1]: 6.00 | pKi [2]: 5.67 | pKi [3]: < 5.00 | pKi [4]: 5.32

CC(C)(C(=O)O)c1ccc(C(O)CCCN2CCC(C(O)(c3ccccc3)c3ccccc3)CC2)cc1 (configuration not stated) [FEXOFENADINE HYDROCHLORIDE]
pKi [5]: 5.06

O=c1ccn([C@@H]2O[C@H](COP(=O)(O)OP(=O)(O)OP(=O)(O)O)[C@@H](O)[C@H]2O)c(=O)[nH]1
pKi [6]: 5.06 | pKi [2]: 5.32 | pKi [5]: 5.41

O=C(O)c1n[nH]c2c1C[C@H]1C[C@@H]21
pKi [7]: < 5.00 | pKi [3]: 5.61 | pKi [4]: < 5.00

COc1ccccc1N1CCN(CCCCNC(=O)c2ccc3ccccc3c2)CC1
pKi [8]: 6.88 | pKi [9]: 7.08 | pKi [10]: 6.60 | pKi [2]: 5.93 | pKi [11]: 6.90 | pKi [12]: 6.95 | pKi [7]: 6.12 | pKi [3]: 6.52 | pKi [13]: 6.13 | pKi [4]: 5.78 | pKi [14]: 6.59 | pKi [15]: 7.53 | pKi [16]: 6.78

CCCCCNC(=O)NS(=O)(=O)c1cc([N+](=O)[O-])ccc1NC1CCCCC1
pKi [1]: 5.59 | pKi [3]: 5.11 | pKi [4]: 5.16

OC1(c2ccc(Cl)cc2)CCN(Cc2c[nH]c3ccccc23)CC1
pKi [8]: 6.22 | pKi [6]: 6.24 | pKi [1]: 6.69 | pKi [17]: 5.41 | pKi [10]: 7.29 | pKi [18]: 6.24 | pKi [12]: 6.57 | pKi [3]: 7.53 | pKi [13]: 5.85 | pKi [4]: 5.83
